Results reported in ChEMBL document CHEMBL1201862, “PubChem BioAssay data set” (2004).
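Following 48 hours of exposure in 96-well plates, responses at five concentrations were used to interpolate endpoints linearly. The concentration for 50% growth inhibition is given as GI50.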 Active and inactive are the calls of the source. No stated cut-off is given here; in the data, active = GI50 up to about 1.1 µM and inactive = higher.

How the values were obtained:
Experiment in all cases: NCI anticancer screen, dose series, 48 h
A549 = test system: A549
CAKI-1 = test system: CAKI-1
CCRF-CEM = test system: CCRF-CEM
DU-145 = test system: DU-145
HOP-92 = test system: HOP-92
KM12 = test system: KM12
MCF7 = test system: MCF7
MDA-MB-435 = test system: MDA-MB-435
NCI-H226 = test system: NCI-H226
OVCAR-3 = test system: OVCAR-3
OVCAR-4 = test system: OVCAR-4
SF-268 = test system: SF-268
SK-MEL-28 = test system: SK-MEL-28
SN12C = test system: SN12C
SNB-75 = test system: SNB-75
SR = test system: SR
UACC-62 = test system: UACC-62
UO-31 = test system: UO-31
Malme-3M = test system: Malme-3M

SMILES	GI50 (A549)	GI50 (CAKI-1)	GI50 (CCRF-CEM)	GI50 (DU-145)	GI50 (HOP-92)	GI50 (KM12)	GI50 (MCF7)	GI50 (MDA-MB-435)	GI50 (NCI-H226)	GI50 (OVCAR-3)	GI50 (OVCAR-4)	GI50 (SF-268)	GI50 (SK-MEL-28)	GI50 (SN12C)	GI50 (SNB-75)	GI50 (SR)	GI50 (UACC-62)	GI50 (UO-31)	GI50 (Malme-3M)
COc1ccc(-n2c(-c3ccccc3)cc(-c3cccs3)c2-c2cccs2)cc1	39.4 µM (inactive)	> 100 µM (inactive)	0.0818 µM (active)	> 100 µM (inactive)	> 100 µM (inactive)	> 100 µM (inactive)	> 100 µM (inactive)	> 100 µM (inactive)	> 100 µM (inactive)	> 100 µM (inactive)	56.6 µM (inactive)	> 100 µM (inactive)	> 100 µM (inactive)	> 100 µM (inactive)	88.9 µM (inactive)	> 100 µM (inactive)	> 100 µM (inactive)	> 100 µM (inactive)	–
N=C(N)SCc1nc(-c2ccc(Cl)cc2)no1	38.4 µM (inactive)	14 µM (inactive)	3.84 µM (inactive)	15.7 µM (inactive)	29.1 µM (inactive)	20.8 µM (inactive)	12.9 µM (inactive)	12.2 µM (inactive)	> 100 µM (inactive)	11.9 µM (inactive)	14.6 µM (inactive)	19.3 µM (inactive)	16.9 µM (inactive)	17.8 µM (inactive)	23.1 µM (inactive)	4.48 µM (inactive)	9.79 µM (inactive)	–	16.9 µM (inactive)
N#CC1C(=O)NC(=O)C(C#N)C1c1ccc(Cl)c(Cl)c1 (configuration not stated)	49.3 µM (inactive)	22.4 µM (inactive)	13.6 µM (inactive)	37.5 µM (inactive)	37.4 µM (inactive)	33.7 µM (inactive)	34.4 µM (inactive)	22.7 µM (inactive)	–	24.2 µM (inactive)	81.8 µM (inactive)	34.8 µM (inactive)	30.6 µM (inactive)	< 0.01 µM (active)	25.2 µM (inactive)	18.2 µM (inactive)	–	16.5 µM (inactive)	> 100 µM (inactive)
COc1ccccc1NC(=O)C1=C(C)NC(C)=C(C(=O)Nc2ccccc2OC)C1c1ccccc1F	57.4 µM (inactive)	> 100 µM (inactive)	54.3 µM (inactive)	–	79.3 µM (inactive)	66.7 µM (inactive)	–	–	> 100 µM (inactive)	> 100 µM (inactive)	> 100 µM (inactive)	> 100 µM (inactive)	> 100 µM (inactive)	> 100 µM (inactive)	18 µM (inactive)	64.7 µM (inactive)	81.7 µM (inactive)	62.7 µM (inactive)	63.1 µM (inactive)
CC(=O)NNc1nc(C)c(C(=O)NNC(=O)C(=O)Nc2ccc(C)c(C)c2)s1	> 100 µM (inactive)	> 100 µM (inactive)	42.2 µM (inactive)	–	> 100 µM (inactive)	42.5 µM (inactive)	–	–	> 100 µM (inactive)	21.3 µM (inactive)	72.9 µM (inactive)	> 100 µM (inactive)	> 100 µM (inactive)	> 100 µM (inactive)	> 100 µM (inactive)	54.1 µM (inactive)	> 100 µM (inactive)	74 µM (inactive)	> 100 µM (inactive)
COc1ccc(CC2C(=O)NC(C)C(=O)N(C)C3C(=O)N(C)C(Cc4ccc(O)c(c4)Oc4ccc(cc4)C3O)C(=O)NC(C)C(=O)NC(C)C(=O)N2C)cc1.COc1ccc(CC2C(=O)NC(C)C(=O)N(C)C3Cc4ccc(cc4)Oc4cc(ccc4O)CC(C(=O)NC(C)C(=O)NC(C)C(=O)N2C)N(C)C3=O)cc1 (configuration not stated)	0.0177 µM (active)	0.137 µM (active)	0.00177 µM (active)	0.00364 µM (active)	0.00364 µM (active)	0.0024 µM (active)	0.00215 µM (active)	0.004 µM (active)	0.00233 µM (active)	0.01 µM (active)	0.0127 µM (active)	0.00316 µM (active)	0.00344 µM (active)	–	0.01 µM (active)	0.01 µM (active)	0.00266 µM (active)	0.136 µM (active)	–
